Source: patent US20200008395A1, “METHOD OF USING HUMAN EXCREMENT AND SECRETIONS FOR EARLY DETECTION OF PARKINSON'S DISEASE” (NEURRX, SPC, priority 2017, published 2020)

How the values were obtained:
[1] = Regression model of nutritional supplements and PD progression (PRO-PD score); format: in vivo, human; conditions: positive report of consistently using supplement over the previous 6 months, adjusted for years since diagnosis; for Mean change in PRO-PD score (SE)*: age, and gender; for Mean change in PRO-PD score (SE)**: age, gender, and income
Source text: When the diagnosis comes 10-15 years or more into the disease, the contribution or effectiveness of a disease-modifying therapy is diminished. Conversely, early detection and intervention by disease-modifying therapies can reduce rate of PD progression or delay disease onset. […] As used herein, PRO-PD is the Patient Reported Outcomes in Parkinson's Disease rating scale, which is used to describe PD disease severity among individuals with a clinical diagnosis of PD.
Certain foods and supplements are known to be associated with different rates of PD progression.

[2] = supplements / pharmaceuticals said to have been shown to slow or reduce progression; cited from earlier work

| Compound | Mean change in PRO-PD score (SE)* [1] | Mean change in PRO-PD score (SE)** [1] | Effect on PD progression (statement in words) [2] |
| --- | --- | --- | --- |
| CN1c2c(nc(N)[nH]c2=O)NCC1CNc1ccc(C(=O)N[C@@H](CCC(=O)O)C(=O)O)cc1 (stereo partly drawn) [5-Methyltetrahydrofolate (5-MTHF), 5-Methyltetrahydrofolate] | −17.1 | −25.1 | – |
| [Ca+2] [Calcium] | −6.2 | 12.5 | – |
| COC1=C(OC)C(=O)C(C/C=C(\C)CC/C=C(\C)CC/C=C(\C)CC/C=C(\C)CC/C=C(\C)CC/C=C(\C)CC/C=C(\C)CC/C=C(\C)CC/C=C(\C)CCC=C(C)C)=C(C)C1=O [CoQ10, coenzyme Q-10] | – | – | slow the progression of PD |
| C[C@]12CC[C@H](O)CC1=CC[C@@H]1[C@@H]2CC[C@]2(C)C(=O)CC[C@@H]12 [DHEA, dehydroepiandrosterone] | – | – | slow the progression of PD |
| N[C@@H](CCC(=O)N[C@@H](CS)C(=O)NCC(=O)O)C(=O)O [Glutathione, oral, glutathione] | – | – | slow the progression of PD |
| O=C1CC[C@@]2(O)[C@H]3Cc4ccc(O)c5c4[C@@]2(CCN3CC2CC2)[C@H]1O5 [Low-dose naltrexone, naltrexone] | – | – | reduce the rate of progression |
| NC(=O)C1=CN([C@@H]2O[C@H](COP(=O)(O)OP(=O)(O)OC[C@H]3O[C@@H](n4cnc5c(N)ncnc54)[C@H](O)[C@@H]3O)[C@@H](O)[C@H]2O)C=CC1 [NADH] | −9.7 | −25.2 | – |
| N[C@@H](Cc1ccc(O)c(O)c1)C(=O)O [levodopa] | – | – | reduce the rate of progression |
| C#CCN[C@@H]1CCc2ccccc21 [rasagiline] | – | – | reduce the rate of progression |
| C#CCN(C)[C@H](C)Cc1ccccc1 [selegeline] | – | – | reduce the rate of progression |
| Vitamin D | −26.1 | −3.6 | – |
